≈ marks a conversion by molar mass, not a printed value. Read-outs that look alike come from different tables or passages of the source.
Tests used:
[1] = DPPH free radical scavenging assay; type: biochemical; details: concentration of 20µg/l, mean ± SD of three experiments
Procedure: Antioxidant activity of the newly synthesized 13a–i, 14a–i, 11a–c and 12a–c were assessed in terms of hydrogen-donating or radical-scavenging ability via the stable free radical 1,1-diphenyl-2-picrylhydrazyl (DPPH) using ascorbic acid as a reference at a concentration of […].
The free radical scavenging activity (RSA) was assessed spectrophotometically at 517 nm via decoloration of the solution of the DPPH (1,1-diphenyl-2-picrylhydrazyl) radical according to Brand-Williams et al. 1995 [32]. DPPH solution was prepared by dissolving of 20 mg of DPPH in one liter of dimethylsulphoxide (DMSO). A freshly prepared DPPH solution was used for the assay. Each of the tested compounds 11a–c, 12a–c, 13a–i, 14a–i and 15a,b were dissolved in DMSO (1mg/mL). A volume of […] of a DMSO stock solution of the test compounds was added to 2 mL of freshly prepared DPPH in DMSO solution. The mixtures were shaken in a vortex (2500 rpm) for 1 min and then left to stand for 15, 30, 45 and 60 min in the dark room. The absorbance was measured at 517 nm against blank using UV visible spectrophotometer 2401 PC (Shimadzu, Kyoto, Japan). Lower absorbance of the reaction mixture indicated higher free radical scavenging activity was analyzed from the graph plots of the inhibition percentage against the compound concentration. The experiment was carried out in triplicate and averaged. The scavenging activity was calculated according to the following formula:Scavenging ability (%) = (A517 of control - A517of sample / A 517 of control) ×100(1)

[2] = system: HCT-116 (human colon cancer); test: MTT cytotoxicity assay, HCT-116; type: cell-based; details: for inhibition at 100 µg/mL / IC50: Homo sapiens; for inhibition at 100 µg/mL: HCT-116, 100 µg/ml, 48 h, read-out: Growth Inhibition (%) HCT-116; for IC50: HCT-116, 48 h
[3] = system: MCF-7 (human breast cancer); test: MTT cytotoxicity assay, MCF-7; type: cell-based; details: for inhibition at 100 µg/mL: MCF7, 100 µg/ml, 48 h, read-out: Growth Inhibition (%) MCF-7; for IC50: MCF7, 48 h post-treatment
Procedure: (§1) MCF-7 (human breast cancer), HCT-116 (human colon cancer) and HepG2 (human liver cancer) cell lines were obtained from Karolinska Institute, Stockholm, Sweden. All cells were maintained in RPMI 1640 medium. The media were supplemented with 10% heat-inactivated fetal bovine serum plus 1% antibiotic-antimycoticmixture (10,000 U/mL of potassium penicillin, 10,000 μg/mL of streptomycin sulfate, 25 μg/mL of amphotericin B and 1% of L glutamine (Biowest, USA)). BJ-1 of a human skin fibroblast derived from normal foreskin was obtained from ATCC® CRL-2522™ as a frozen ampoule with about 1 × 10^6 cells per 1 ml volume. BJ-1 was maintained in MEM with 2 mM of L-glutamine and Earle’s salts medium.
(§2) Cell viability was studied using the MTT 3-(4,5-dimethylthiazol-2-yl)-2,5-diphenyl-tetrazolium bromide (Bio Basic Canada Inc. Toronto, Canada) assay [33]. The steps were executed in a sterile laminar air flow cabinet biosafety class II level (Baker, SG403INT; Sanford, ME, USA). All incubations were carried out at 37 °C in a 5% CO2 incubator under a humidified atmosphere of 95% (Sheldon, TC2323; Cornelius, OR, USA). Cells were seeded into 96-well microtiter plastic plates at a concentration of (10^4 cells/well) and allowed to adhere for 24 h. The medium was aspirated and then added to the cells with the test compounds 11a–c, 12a–c, 13a–i, 14a–i and 15a,b at a single dose of 100 μg/mL in DMSO. After incubation of the medium for 48 h, 40 μL of MTT salt (2.5 μg/mL) was added to each well and then incubated for an additional 4 h. To stop the reaction and dissolve any formed formazan crystals, 200 μL of 10% sodium dodecyl sulfate (SDS) were added to each well and incubated overnight at 37 °C. The amount of formazan product was measured at 595 nm with a reference wavelength of 690 nm as a background using a microplate reader (Bio-Rad Laboratories, model 3350, California, USA). For the untreated cells (negative control), the medium was added instead of the tested compounds. […] Dimethylsulfoxide (DMSO) was the vehicle used for dissolution of the testing compound, and its final concentration on the cells was less than 0.2%. At the same dilution, the solvent concentration was the same for all drugs and between the control and drug treatments.

[4] = system: HepG-2 (human liver cancer); test: MTT cytotoxicity assay, HepG-2; type: cell-based; details: for inhibition at 100 µg/mL: HepG2, 100 µg/ml, 48 h, read-out: Growth Inhibition (%) HepG-2; for IC50: HepG2, 48 h post-treatment
Procedure: as §1, §2

[5] = system: normal skin fibroblast cells (BJ-1); test: MTT cytotoxicity assay, normal skin fibroblast BJ-1; type: cell-based; details: Homo sapiens, 48 h, read-out: Growth Inhibition (%) BJ-1
[6] = 15 min, read-out: Scavenging Activity (%) on DPPH radicals at 15 min
[7] = 30 min, read-out: Scavenging Activity (%) on DPPH radicals at 30 min
[8] = 45 min, read-out: Scavenging Activity (%) on DPPH radicals at 45 min
[9] = 60 min, read-out: Scavenging Activity (%) on DPPH radicals at 60 min

Row | SMILES | inhibition [1, 6] [%] | inhibition [1, 7] [%] | inhibition [1, 8] [%] | inhibition [1, 9] [%] | inhibition at 100 µg/mL [2] [%] | IC50 ([2]; 48 h post-treatment) [µg/mL] | inhibition at 100 µg/mL [3] [%] | IC50 [3] [µg/mL] | melting point [°C] | inhibition at 100 µg/mL [4] [%] | IC50 [4] [µg/mL] | inhibition at 100 µg/mL [5] [%] | IC50 HCT-116 ([2]; 48 h post-treatment) [µg/mL]
1 | O=C1O[C@H]([C@@H](O)CO)C(O)=C1O [Ascorbic acid, ascorbic acid, reference compound] | 94.4 ± 1.74 | 97.5 ± 1.32 | 98.78 ± 0.94 | 99.67 ± 0.28 | – | – | – | – | – | – | – | – | –
2 | O=C(c1ccccc1)n1cc(C2=NNC3(C2)C(=O)Nc2ccccc23)c2ccccc21 (centres unmarked) [Compound 13d, 5’-(N-Benzoyl-1H-indol-3-yl)-2’,4’-dihydrospiro(indoline-3,3’-pyrazol)-2-one] | 19.3 ± 1.24 | 31.3 ± 1.81 | 25.9 ± 1.24 | 39.7 ± 1.99 | 94.6 | 26.9 (≈ 66.2 µM) | 96.4 | 25.4 (≈ 62.5 µM) | 307 to 309 | 82.7 | 60.9 (≈ 150 µM) | 7 | –
3 | O=C(c1ccccc1Cl)n1cc(C2=NNC3(C2)C(=O)Nc2ccccc23)c2ccccc21 (centres unmarked) [Compound 13e, 5’-(N-(2-Chloro-benzoyl)-1H-indol-3-yl)-2’,4’-dihydrospiro(indoline-3,3’-pyrazol)-2-one] | 9.1 ± 1.38 | 26.1 ± 1.26 | 36.7 ± 1.62 | 48.1 ± 1.82 | 90.4 | 35.4 (≈ 80.3 µM) | 96.4 | 31.9 (≈ 72.4 µM) | 219 to 221 | 79.8 | 67.1 (≈ 152 µM) | 10.3 | –
4 | O=C1Nc2ccccc2C12CC(c1cn(S(=O)(=O)c3ccccc3[N+](=O)[O-])c3ccccc13)=NN2 (centres unmarked) [Compound 13i, 5’-(N-(2-Nitro-benzensulfonyl)-1H-indol-3-yl)-2’,4’-dihydrospiro (indoline-3,3’-pyrazol)-2-one] | – | – | – | – | 97.7 | – | 97.8 | – | 210 to 212 | 96.8 | – | 69.4 | –
5 | O=C1Nc2ccccc2C12CC(c1c[nH]c3ccccc13)=NN2c1ccccc1 (centres unmarked) [Compound 14a, 5’-(1H-Indol-3-yl)-2’-phenyl-2’,4’-dihydrospiro(indoline-3,3’-pyrazol)-2-one] | 41.1 ± 2.05 | 51.5 ± 1.91 | 54 ± 2.06 | 59.2 ± 2.14 | 91.2 | 36.2 (≈ 95.7 µM) | 90.4 | 32.3 (≈ 85.4 µM) | 124 to 126 | – | – | 14.2 | –
6 | CCn1cc(C2=NN(c3ccccc3)C3(C2)C(=O)Nc2ccccc23)c2ccccc21 (centres unmarked) [Compound 14b, 5’-(N-Ethyl-1H-indol-3-yl)-2’-phenyl-2’,4’-dihydrospiro(indoline-3,3’-pyrazol)-2-one] | 42.4 ± 1.45 | 58.1 ± 1.28 | 60.3 ± 1.66 | 66 ± 1.64 | 84.6 | 40.1 (≈ 98.6 µM) | 80.3 | 36.3 (≈ 89.3 µM) | 108 to 110 | – | – | 8.1 | –
7 | O=C1Nc2ccccc2C12CC(c1cn(Cc3ccccc3)c3ccccc13)=NN2c1ccccc1 (centres unmarked) [Compound 14c, 5’-(N-Benzyl-1H-indol-3-yl)-2’-phenyl-2’,4’-dihydrospiro(indoline-3,3’-pyrazol)-2-one] | 14.8 ± 1.36 | 22.6 ± 1.79 | 26.3 ± 1.23 | 39.5 ± 1.61 | 91.8 | 40.5 (≈ 86.4 µM) | 92.3 | 32.5 (≈ 69.4 µM) | 96 to 98 | – | – | 13.6 | –
8 | O=C(c1ccccc1)n1cc(C2=NN(c3ccccc3)C3(C2)C(=O)Nc2ccccc23)c2ccccc21 (centres unmarked) [Compound 14d, 5’-(N-Benzoyl-1H-indol-3-yl)-2’-phenyl-2’,4’-dihydrospiro(indoline-3,3’-pyrazol)-2-one] | 39.9 ± 1.75 | 41.8 ± 1.49 | 45 ± 1.37 | 55.4 ± 1.33 | 96.2 | 30.7 (≈ 63.6 µM) | 94 | 31.6 (≈ 65.5 µM) | 100 to 102 | – | – | 9.5 | –
9 | O=C(c1ccccc1Cl)n1cc(C2=NN(c3ccccc3)C3(C2)C(=O)Nc2ccccc23)c2ccccc21 (centres unmarked) [Compound 14e, 5’-(N-(2-Chlorobenzoyl)-1H-indol-3-yl)-2’-phenyl-2’,4’-dihydrospiro(indoline-3,3’-pyrazol)-2-one] | 17.9 ± 1.23 | 28.2 ± 1.27 | 30.9 ± 1.98 | 34.9 ± 1.72 | 35.1 | – | 85.3 | 54 (≈ 104 µM) | 78 to 80 | – | – | 16.6 | –
10 | O=C(c1ccc(Cl)cc1)n1cc(C2=NN(c3ccccc3)C3(C2)C(=O)Nc2ccccc23)c2ccccc21 (centres unmarked) [Compound 14f, 5’-(N-(4-Chlorobenzoyl)-1H-indol-3-yl)-2’-phenyl-2’,4’-dihydrospiro(indoline-3,3’-pyrazol)-2-one] | 9.05 ± 1.63 | 10.2 ± 1.83 | 16.2 ± 1.21 | 22.9 ± 1.62 | 91.4 | 35.8 (≈ 69.2 µM) | 89.3 | 31.2 (≈ 60.3 µM) | 162 to 164 | – | – | 14.5 | –
11 | O=C1Nc2ccccc2C12CC(c1cn(S(=O)(=O)c3ccc(Br)cc3)c3ccccc13)=NN2c1ccccc1 (centres unmarked) [Compound 14g, 5’-(N-(4-Bromo-benzenesulfonyl)-1H-indol-3-yl)-2’-phenyl-2’,4’-dihydrospiro(indoline-3,3’-pyrazol)-2-one] | 8.39 ± 1.14 | 11.9 ± 1.23 | 14.1 ± 2.01 | 26.6 ± 2.13 | 92.1 | 38 (≈ 63.6 µM) | 90.6 | 37.4 (≈ 62.6 µM) | 132 to 134 | – | – | 16 | –
12 | O=C1Nc2ccccc2C12CC(c1cn(S(=O)(=O)c3ccc(Cl)cc3)c3ccccc13)=NN2c1ccccc1 (centres unmarked) [Compound 14h, 5’-(N-(4-Chloro-benzenesulfonyl)-1H-indol-3-yl)-2’-phenyl-2’,4’-dihydrospiro(indoline-3,3’-pyrazol)-2-one] | 57.9 ± 1.36 | 67.3 ± 1.35 | 72 ± 1.82 | 86 ± 2.17 | 96.2 | – | 94 | – | 110 to 112 | – | – | 86.5 | –
13 | O=C1Nc2ccccc2C12CC(c1cn(S(=O)(=O)c3ccccc3[N+](=O)[O-])c3ccccc13)=NN2c1ccccc1 (centres unmarked) [Compound 14i, 5’-(N-(2-Nitro-benzenesulfonyl)-1H-indol-3-yl)-2’-phenyl-2’,4’-dihydrospiro(indoline-3,3’-pyrazol)-2-one] | – | – | – | – | 35.1 | – | 52.3 | – | 152 to 154 | – | – | 78.6 | –
14 | COc1cccc2c1C(=O)c1c(O)c3c(c(O)c1C2=O)C[C@@](O)(C(=O)CO)C[C@@H]3O[C@H]1C[C@H](N)[C@H](O)[C@H](C)O1 [Doxorubicin, doxorubicin, reference compound] | – | – | – | – | 100 | 21.6 (≈ 39.7 µM) | 96.8 | 37.6 (≈ 69.2 µM) | – | 100 | 21.6 (≈ 39.7 µM) | 0 | 26.1 (≈ 48 µM)
